Reference: PubChem BioAssay (NCI)
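Each compound was tested at five concentrations against cells in 96-well plates for 48 hours. TGI denotes the concentration required for complete inhibition of growth.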

Legend:
Assay in all cases: NCI-60 cell line screen, 48 h
NCI-H226 lung = test system: NCI-H226 lung
UACC-257 melanoma = test system: UACC-257 melanoma
TK-10 renal = test system: TK-10 renal
U251 CNS = test system: U251 CNS
HCT-15 colon = test system: HCT-15 colon
OVCAR-3 ovarian = test system: OVCAR-3 ovarian
NCI-H522 lung = test system: NCI-H522 lung
OVCAR-8 ovarian = test system: OVCAR-8 ovarian
HS 578T breast = test system: HS 578T breast
NCI/ADR-RES ovarian = test system: NCI/ADR-RES ovarian

| SMILES | TGI (NCI-H226 lung) [µM] | TGI (UACC-257 melanoma) [µM] | TGI (TK-10 renal) [µM] | TGI (U251 CNS) [µM] | TGI (HCT-15 colon) [µM] | TGI (OVCAR-3 ovarian) [µM] | TGI (NCI-H522 lung) [µM] | TGI (OVCAR-8 ovarian) [µM] | TGI (HS 578T breast) [µM] | TGI (NCI/ADR-RES ovarian) [µM] |
| --- | --- | --- | --- | --- | --- | --- | --- | --- | --- | --- |
| CC1(C)O[C@@H](CCl)C[C@H](C#N)O1 | > 100 | > 100 | > 100 | > 100 | > 100 | > 100 | > 100 | > 100 | – | – |
| CCCCCc1nnc(NS(=O)(=O)c2ccc(NC(=O)OCC(C)C)cc2)s1 | – | > 100 | > 100 | > 100 | > 100 | 86.9 | 79 | > 100 | > 100 | > 100 |
| COc1cc(CNc2cnc3cc(N)ccc3n2)cc(OC)c1OC | – | > 100 | > 100 | > 100 | > 100 | 41.1 | 74.5 | > 100 | – | – |
| CSCCCS/C1=C/CCCCCCCCCC1 | > 100 | > 100 | > 100 | > 100 | > 100 | > 100 | – | – | > 100 | > 100 |
| O=C(CCCCCCCCC(=O)N1C(=O)CC(=O)N(c2ccccc2)C1=S)N1C(=O)CC(=O)N(c2ccccc2)C1=S | – | > 100 | > 100 | > 100 | > 100 | > 100 | > 100 | > 100 | > 100 | > 100 |
| O=c1[nH]c2ccccc2c(O)c1/C=N/C(=S)NCc1ccccc1 | > 100 | > 100 | > 100 | > 100 | – | > 100 | – | > 100 | – | > 100 |
| O=c1cc(NNc2cccc(F)c2)[nH]c(=O)[nH]1 | > 100 | 34.8 | 27.2 | 31 | 30.9 | 30.1 | 35.3 | – | > 100 | > 100 |
| CCCCCCNC(=O)CCC(NC(=O)c1ccc(N(C)Cc2cnc3nc(N)nc(N)c3n2)cc1)C(=O)NCCCCCC (stereo unspecified) | > 100 | > 100 | > 100 | > 100 | > 100 | > 100 | > 100 | > 100 | – | > 100 |
| CCC/C=C1\CCC(CN(C)C)C1=O (stereo unspecified) | 35.1 | 30.8 | 14.6 | 15.6 | 6.68 | 12.3 | 3.87 | 33.7 | – | – |
| O=C(NC1CCCCC1)c1cc2ccccc2cc1O | 41 | > 100 | > 100 | > 100 | 65.1 | – | – | 67.9 | 97.8 | 54.7 |
| NNc1nncc2[nH]cnc12 | > 100 | > 100 | > 100 | > 100 | > 100 | > 100 | – | > 100 | > 100 | > 100 |
| CCOC(=O)c1c(-c2ccc(Cl)cc2)c(C#N)c(=S)n(C2OC(COC(C)=O)C(OC(C)=O)C(OC(C)=O)C2OC(C)=O)c1-c1ccccc1 (stereo unspecified) | – | > 100 | > 100 | > 100 | > 100 | > 100 | – | – | > 100 | > 100 |
| COc1ccc2c(c1)C/C(=C\c1cccc3ccccc13)C2=O | 59.7 | – | > 100 | 81.3 | > 100 | 50.4 | – | > 100 | > 100 | > 100 |
| CC1(C)C(=O)c2ccccc2OC1N1CCN(C2Oc3ccccc3C(=O)C2(C)C)CC1 (stereo unspecified) | > 100 | – | > 100 | > 100 | > 100 | > 100 | > 100 | – | > 100 | > 100 |
| CCOC(=O)c1cc(I)c(-c2cc(C)no2)n1C | > 100 | > 100 | > 100 | > 100 | > 100 | > 100 | > 100 | > 100 | – | > 100 |
| C=CCN1C(=O)/C(=C/c2ccco2)N=C1SC1OC(COC(C)=O)C(OC(C)=O)C(OC(C)=O)C1OC(C)=O (stereo unspecified) | > 100 | > 100 | > 100 | > 100 | > 100 | > 100 | 51.7 | > 100 | – | > 100 |
| Oc1ccc(Cl)cc1-c1cc(-c2ccccc2)nc(NCN2CCCCC2)n1 | – | > 100 | > 100 | > 100 | > 100 | > 100 | > 100 | > 100 | > 100 | > 100 |
| O=S(OC12CC3CC(CC(C3)C1)C2)c1cc(Cl)cc(Cl)c1OCc1ccccc1 (stereo unspecified) | – | > 100 | > 100 | > 100 | – | > 100 | 37.1 | – | – | – |
| O=c1cc(-c2c[nH]c3ccccc23)[nH]c2cc3c(cc12)OCO3 | > 100 | > 100 | > 100 | > 100 | > 100 | > 100 | – | – | – | – |
| CC1(C)C(CCO)CC1n1cc(I)c(=O)[nH]c1=O (stereo unspecified) | > 100 | > 100 | > 100 | > 100 | > 100 | > 100 | – | – | > 100 | > 100 |
| CCCC(C)n1c(C)nc2c1C(=O)c1ccccc1C2=O (stereo unspecified) | > 100 | 63.1 | > 100 | > 100 | > 100 | 85.1 | 97 | > 100 | – | – |
| O=[N+]([O-])c1ccccc1S(=O)(=O)c1ccccc1 | > 100 | > 100 | > 100 | > 100 | > 100 | > 100 | – | > 100 | – | – |
| O=C(O)C[C@@H]1[C@@H](O)[C@@H](O)CN2C(=O)c3ccccc3[C@H]12 | > 100 | > 100 | > 100 | > 100 | > 100 | – | > 100 | > 100 | – | > 100 |
| Brc1ccc2c3c1[C@H]1O[C@H]1c1cccc(c1-3)[C@@H]1O[C@H]21 | 64 | 34.2 | 37.4 | 37.1 | 49.1 | – | 27.6 | 37.7 | 59.5 | 76.8 |
| CCOC(=O)c1nc2ccccc2nc1Oc1ccc(C(=O)OC)cc1 | > 100 | > 100 | > 100 | > 100 | > 100 | > 100 | – | > 100 | > 100 | > 100 |
